Results taken from patent publication US12618095B2, “Medium for Bacillus cereus group detection” (SHIMADZU DIAGNOSTICS CORPORATION, priority 2020, dated 2026).

Assays:
Assay in all cases: Test Example 10: agar medium with aztreonam or ceftazidime
E. coli = assay type: cell-based; conditions: 22 hours; for Number of colonies: ATCC8739
B. cereus = conditions: 22 hours
E. amnigenus = conditions: 22 hours; for Number of colonies: ATCC33072
B. thuringiensis = conditions: NBRC101235, 22 hours
[1] = Ceftazidime 0.05 mg, 10^1 cfu/mL
[2] = Ceftazidime 0.05 mg, 10^2 cfu/mL
[3] = Ceftazidime 0.05 mg, 10^3 cfu/mL
[4] = Ceftazidime 0.05 mg, 10^4 cfu/mL
[5] = Ceftazidime 0.05 mg, 10^5 cfu/mL
[6] = Ceftazidime 0.5 mg, 10^1 cfu/mL
[7] = Ceftazidime 0.5 mg, 10^2 cfu/mL
[8] = Ceftazidime 0.5 mg, 10^3 cfu/mL
[9] = Ceftazidime 0.5 mg, 10^4 cfu/mL
[10] = Ceftazidime 0.5 mg, 10^5 cfu/mL

**Q.** For `CC(C)(O/N=C(\C(=O)N[C@@H]1C(=O)N2C(C(=O)[O-])=C(C[n+]3ccccc3)CS[C@H]12)c1csc(N)n1)C(=O)O` [ceftazidime], which Number of colonies (E. coli; [1]) is on record?
**A.** −

**Q.** And the Number of colonies (E. coli; [2])?
**A.** −

**Q.** And the Number of colonies (E. coli; [3])?
**A.** −

**Q.** And the Number of colonies (E. coli; [4])?
**A.** −

**Q.** And the Number of colonies (E. coli; [5])?
**A.** −

**Q.** And the Number of colonies (E. coli; [6])?
**A.** −

**Q.** And the Number of colonies (E. coli; [7])?
**A.** −

**Q.** And the Number of colonies (E. coli; [8])?
**A.** −

**Q.** And the Number of colonies (E. coli; [9])?
**A.** −

**Q.** And the Number of colonies (E. coli; [10])?
**A.** −

**Q.** What about the Number of colonies (E. coli; Ceftazidime 5 mg, 10^1 cfu/mL) of the same molecule?
**A.** −

**Q.** And the Number of colonies (E. coli; Ceftazidime 5 mg, 10^2 cfu/mL)?
**A.** −

**Q.** What about the Number of colonies (E. coli; Ceftazidime 5 mg, 10^3 cfu/mL) of the same molecule?
**A.** −

**Q.** And the Number of colonies (E. coli; Ceftazidime 5 mg, 10^4 cfu/mL)?
**A.** −

**Q.** And the Number of colonies (E. coli; Ceftazidime 5 mg, 10^5 cfu/mL)?
**A.** −

**Q.** And the “formation of a white colony” value (E. coli; added to TSA-BC, 30° C.)?
**A.** suppressed

**Q.** What about the Number of colonies (B. cereus; ATCC11778, Ceftazidime 0.05 mg, 10^1 cfu/mL) of the same molecule?
**A.** 2

**Q.** What about the Number of colonies (B. cereus; ATCC11778, Ceftazidime 0.05 mg, 10^2 cfu/mL) of the same molecule?
**A.** 11

**Q.** What about the Number of colonies (B. cereus; ATCC11778, Ceftazidime 0.05 mg, 10^3 cfu/mL) of the same molecule?
**A.** +

**Q.** And the Number of colonies (B. cereus; ATCC11778, Ceftazidime 0.05 mg, 10^4 cfu/mL)?
**A.** +

**Q.** And the Number of colonies (B. cereus; ATCC11778, Ceftazidime 0.05 mg, 10^5 cfu/mL)?
**A.** +

**Q.** And the Number of colonies (B. cereus; ATCC11778, Ceftazidime 0.5 mg, 10^1 cfu/mL)?
**A.** −

**Q.** And the Number of colonies (B. cereus; ATCC11778, Ceftazidime 0.5 mg, 10^2 cfu/mL)?
**A.** 13

**Q.** And the Number of colonies (B. cereus; ATCC11778, Ceftazidime 0.5 mg, 10^3 cfu/mL)?
**A.** +

**Q.** What about the Number of colonies (B. cereus; ATCC11778, Ceftazidime 0.5 mg, 10^4 cfu/mL) of the same molecule?
**A.** +

**Q.** And the Number of colonies (B. cereus; ATCC11778, Ceftazidime 0.5 mg, 10^5 cfu/mL)?
**A.** +

**Q.** And the Number of colonies (B. cereus; ATCC11778, Ceftazidime 5 mg, 10^1 cfu/mL)?
**A.** −

**Q.** What about the Number of colonies (B. cereus; ATCC11778, Ceftazidime 5 mg, 10^2 cfu/mL) of the same molecule?
**A.** 17

**Q.** And the Number of colonies (B. cereus; ATCC11778, Ceftazidime 5 mg, 10^3 cfu/mL)?
**A.** +

**Q.** What about the Number of colonies (B. cereus; ATCC11778, Ceftazidime 5 mg, 10^4 cfu/mL) of the same molecule?
**A.** +

**Q.** And the Number of colonies (B. cereus; ATCC11778, Ceftazidime 5 mg, 10^5 cfu/mL)?
**A.** +

**Q.** What about the Number of colonies (B. cereus; ATCC19637, Ceftazidime 0.05 mg, 10^1 cfu/mL) of the same molecule?
**A.** −

**Q.** And the Number of colonies (B. cereus; ATCC19637, Ceftazidime 0.05 mg, 10^2 cfu/mL)?
**A.** 7

**Q.** And the Number of colonies (B. cereus; ATCC19637, Ceftazidime 0.05 mg, 10^3 cfu/mL)?
**A.** +

**Q.** What about the Number of colonies (B. cereus; ATCC19637, Ceftazidime 0.05 mg, 10^4 cfu/mL) of the same molecule?
**A.** +

**Q.** And the Number of colonies (B. cereus; ATCC19637, Ceftazidime 0.05 mg, 10^5 cfu/mL)?
**A.** +

**Q.** And the Number of colonies (B. cereus; ATCC19637, Ceftazidime 0.5 mg, 10^1 cfu/mL)?
**A.** −

**Q.** And the Number of colonies (B. cereus; ATCC19637, Ceftazidime 0.5 mg, 10^2 cfu/mL)?
**A.** 12

**Q.** And the Number of colonies (B. cereus; ATCC19637, Ceftazidime 0.5 mg, 10^3 cfu/mL)?
**A.** +

**Q.** What about the Number of colonies (B. cereus; ATCC19637, Ceftazidime 0.5 mg, 10^4 cfu/mL) of the same molecule?
**A.** +

**Q.** And the Number of colonies (B. cereus; ATCC19637, Ceftazidime 0.5 mg, 10^5 cfu/mL)?
**A.** +

**Q.** And the Number of colonies (B. cereus; ATCC19637, Ceftazidime 5 mg, 10^1 cfu/mL)?
**A.** 3

**Q.** And the Number of colonies (B. cereus; ATCC19637, Ceftazidime 5 mg, 10^2 cfu/mL)?
**A.** 5

**Q.** What about the Number of colonies (B. cereus; ATCC19637, Ceftazidime 5 mg, 10^3 cfu/mL) of the same molecule?
**A.** +

**Q.** And the Number of colonies (B. cereus; ATCC19637, Ceftazidime 5 mg, 10^4 cfu/mL)?
**A.** +

**Q.** What about the Number of colonies (B. cereus; ATCC19637, Ceftazidime 5 mg, 10^5 cfu/mL) of the same molecule?
**A.** +

**Q.** What about the Number of colonies (E. amnigenus; [1]) of the same molecule?
**A.** −

**Q.** What about the Number of colonies (E. amnigenus; [2]) of the same molecule?
**A.** −

**Q.** What about the Number of colonies (E. amnigenus; [3]) of the same molecule?
**A.** 1

**Q.** What about the Number of colonies (E. amnigenus; [4]) of the same molecule?
**A.** 33

**Q.** What about the Number of colonies (E. amnigenus; [5]) of the same molecule?
**A.** +

**Q.** What about the Number of colonies (E. amnigenus; [6]) of the same molecule?
**A.** −

**Q.** And the Number of colonies (E. amnigenus; [7])?
**A.** −

**Q.** What about the Number of colonies (E. amnigenus; [8]) of the same molecule?
**A.** −

**Q.** And the Number of colonies (E. amnigenus; [9])?
**A.** −

**Q.** What about the Number of colonies (E. amnigenus; [10]) of the same molecule?
**A.** −

**Q.** What about the Number of colonies (E. amnigenus; Ceftazidime 5 mg, 10^1 cfu/mL) of the same molecule?
**A.** −

**Q.** And the Number of colonies (E. amnigenus; Ceftazidime 5 mg, 10^2 cfu/mL)?
**A.** −

**Q.** And the Number of colonies (E. amnigenus; Ceftazidime 5 mg, 10^3 cfu/mL)?
**A.** −

**Q.** What about the Number of colonies (E. amnigenus; Ceftazidime 5 mg, 10^4 cfu/mL) of the same molecule?
**A.** −

**Q.** What about the Number of colonies (E. amnigenus; Ceftazidime 5 mg, 10^5 cfu/mL) of the same molecule?
**A.** −

**Q.** And the “formation of a white colony” value (E. amnigenus; added to TSA-BC, 30° C.)?
**A.** suppressed

**Q.** What about the Number of colonies (B. thuringiensis; [1]) of the same molecule?
**A.** 5

**Q.** And the Number of colonies (B. thuringiensis; [2])?
**A.** 13

**Q.** What about the Number of colonies (B. thuringiensis; [3]) of the same molecule?
**A.** +

**Q.** And the Number of colonies (B. thuringiensis; [4])?
**A.** +

**Q.** What about the Number of colonies (B. thuringiensis; [5]) of the same molecule?
**A.** +

**Q.** And the Number of colonies (B. thuringiensis; [6])?
**A.** 3

**Q.** And the Number of colonies (B. thuringiensis; [7])?
**A.** 10

**Q.** What about the Number of colonies (B. thuringiensis; [8]) of the same molecule?
**A.** +

**Q.** And the Number of colonies (B. thuringiensis; [9])?
**A.** +

**Q.** What about the Number of colonies (B. thuringiensis; [10]) of the same molecule?
**A.** +

**Q.** What about the Number of colonies (B. thuringiensis; Ceftazidime 5 mg, 10^1 cfu/mL) of the same molecule?
**A.** 4

**Q.** What about the Number of colonies (B. thuringiensis; Ceftazidime 5 mg, 10^2 cfu/mL) of the same molecule?
**A.** 16

**Q.** What about the Number of colonies (B. thuringiensis; Ceftazidime 5 mg, 10^3 cfu/mL) of the same molecule?
**A.** +

**Q.** What about the Number of colonies (B. thuringiensis; Ceftazidime 5 mg, 10^4 cfu/mL) of the same molecule?
**A.** +

**Q.** And the Number of colonies (B. thuringiensis; Ceftazidime 5 mg, 10^5 cfu/mL)?
**A.** +
